In PMC10460844, “Real‐Time Monitoring of Multitarget Antimicrobial Mechanisms of Peptoids Using Label‐Free Imaging with Optical Diffraction Tomography” (Advanced Science, 2023):
Square brackets hold non-standard residues; d marks the D form. Peptide text beside a SMILES is read from it. Gly(N(CH2)2(3-indolyl)) = O=C(O)CNCCc1c[nH]c2ccccc12; Nspe = C[C@H](NCC(=O)O)c1ccccc1; Nlys = NCCCCNCC(=O)O

Columns and labels:
E. coli ATCC 25922 [1] = test: Bacterial respiration assay (oxygen consumption rate); assay type: cell-based; conditions: at MIC concentration, Seahorse XFe96, M9 + 10 mM glucose
Method: 11. Bacterial respiration assay
Figure S12. Real-time changes in oxygen consumption rate (OCR, in picomoles of molecular oxygen per minute) in response to treatment with peptoid 29, ampicillin (Amp), and chloramphenicol (Cam) in E. coli measured on a Seahorse XFe 96 extracellular flux analyzer.
OCR changes in cells treated with 29 over time (2.5 min intervals). b) Comparison of OCR responses induced by 29, Amp, and Cam treatment detected at 2.5 min intervals. The vertical line with azure color indicates the injection point of each antibiotic into the cultures. All data represent the mean ± SEM of 5-8 replicates.
Bacterial respiration assays
Cellular oxygen consumption rate (OCR) of E. coli ATCC 25922 was measured using a Seahorse XFe96 Extracellular Flux Analyzer (Agilent) as published previously.[9] Briefly, after overnight culture in LB, bacterial cells were diluted 1:200 into fresh M9 media (M6030, Sigma) and incubated for an additional 3 h at 37 °C. To conduct the measurements, bacteria were diluted to OD600 of 0.02 in M9 supplemented with 10 mM glucose. 90 μL of this cell suspension was loaded into a 96-well microplate precoated with poly-D-lysine (100 μg/mL, Sigma). […] OCR values were quantified every 2.5 min (mix and measure for 30 sec and 2 min, respectively) for an additional 48 cycles, and normalized to bacterial density […]

E. coli ATCC 25922 [2] = assay type: cell-based; conditions: ODT, 30 min treatment; buforin-II 25 µM, melittin 25 µM, 29 4 × MIC
Method: Three‐dimensional (3D) optical diffraction tomography (ODT) and fluorescence images of live bacterial cells were obtained using an HT‐2H Mach−Zehnder interferometric microscope, combining both ODT and fluorescence imaging into a single unit (Tomocube, Daejon, South Korea). 3D Fluorescence imaging was carried out, using three light sources (385, 470, and 565 nm) via serial fluorescence image acquisition in multiple planes followed by 3D deconvolution. 3D correlative imaging, using a combination of ODT and fluorescence imaging was performed using commercial software (TomoStudioTM, Tomocube) as described previously^[ [23c] ^] Bacterial cells were grown overnight and diluted (≈10^7 CFU mL^−1) in cation‐adjusted MHB2 media. The cells were loaded onto 50 mm imaging dishes with a #1.5H glass coverslip bottom (TomoDish, Tomocube) that were precoated with 0.01% (w/v) poly‐L‐lysine (Sigma‐Aldrich) in water. After 30 min incubation at room temperature, the coverslips were washed twice with PBS (pH 7.4) to remove unattached cells, and the media was replaced with PBS for the duration of the imaging. To monitor the change in bacterial morphology, bacterial cells were treated with a peptoid (or with control AMPs) in PBS containing FM4‐64 (10 µg mL^−1) or propidium iodide (10 µg mL^−1). To analyze 3D refractive index (RI) tomograms, individual bacteria were captured using ODT equipped with a digital micromirror device (Tomocube). In more detail, the light scattered by the bacterial cells was collected by an objective lens (NA = 1.2, water dipping, UPLSAPO 60XW, Olympus) and recorded by a digital image sensor (CMOS camera, FL3‐U313Y3M‐C, FLIR Systems). Using a field retrieval algorithm, the amplitude and phase images were retrieved from the obtained multiple holograms, and then the 3D RI distribution was determined.
The analysis tool in the TomoStudio software (Tomocube) was used to measure specific values, including the refractive index (RI) and the cell volume of bacteria. These values were determined from RI increments (RII) of 0.190 fL pg^−1, which is known as a representative value and was assumed to be the same for most proteins.^[ [46] ^]

[3] = Protein and DNA aggregation assay (thioflavin T); assay type: biochemical; conditions: 29 25 µM, protein 500 µg mL^−1, gDNA 50 ng mL^−1, Th T 25 µM, 37 °C 1 h, ex 450 / em 485 nm
Method: bacteria were pelleted at 4,000 rpm for 10 minutes at 8 °C. The supernatant was removed and the pellet was suspended in 2 mL of PBS buffer. This suspension was transferred to a 15 mL conical tube and cooled on ice. The culture was sonicated for 5 sec and cooled again for 55 sec. This cycle was repeated 15 times. The lysate was centrifuged at 4,000 rpm for 20 minutes at 8 °C. The supernatant was transferred into a fresh 2 mL Eppendorf tube and stored at -80 °C. Protein quantification was performed using TaKaRa Bradford Protein Assay Kit according to the manufacturer’s instructions.
DNA extraction and quantification
DNA extraction was performed using TaKaRa MiniBEST Bacteria Genomic DNA Extraction Kit Ver. 3.0 according to the manufacturer’s instructions.
Protein and DNA aggregation assay
The flocculation of the proteins and DNA caused by peptoids was confirmed by the change in the fluorescent intensity of thioflavin T (Th T) that detects aggregated proteins and double stranded DNA. The appropriate combination of 500 μg/mL of protein solution, 50 ng/mL of genomic DNA, 25 μM of Th T, and 25 μM of peptoid 29 were added into a black 96-well plate in triplicate and incubated at 37 °C for an hour. After incubation, the fluorescence was measured using a microplate reader (excitation wavelength = 450 nm, emission wavelength = […]
[1] […]

SMILES: C[C@@H](c1ccccc1)N(CC(=O)N(CCCCN)CC(=O)N(CCc1c[nH]c2ccccc12)CC(=O)N(CCc1c[nH]c2ccccc12)CC(N)=O)C(=O)CN(CCCCN)C(=O)CN(CCCCN)C(=O)CN(C(=O)CN(C(=O)CN(CCCCN)C(=O)CN(C(=O)CN(C(=O)CNCCCCN)[C@@H](C)c1ccccc1)[C@@H](C)c1ccccc1)[C@@H](C)c1ccccc1)[C@@H](C)c1ccccc1 [peptoid 29] (H-[Nlys][Nspe][Nspe][Nlys][Nspe][Nspe][Nlys][Nlys][Nspe][Nlys][Gly(N(CH2)2(3-indolyl))][Gly(N(CH2)2(3-indolyl))]-NH2)
- time after which OCR converged to zero (E. coli ATCC 25922 [1]): 30 min
- change of cell volume (E. coli ATCC 25922 [2]): notable reduction in cell volume
- change of mean RI value versus control cells (E. coli ATCC 25922 [2]): significantly increased mean RI values
- Th T fluorescence of protein and protein/gDNA samples [3]: significant increases in fluorescent emission
